# Laboratory results published in US20240000814A1, “TREATING ALCOHOL USE DISORDER USING PSILOCYBIN” (New York University, priority 2022, published 2024).
# What was measured:
# Type in all cases: in vivo, human
# AUD patients [1] = test: Double-blind randomized trial of psilocybin-assisted treatment of AUD: drinking outcomes by timeline followback; conditions: for % of Heavy drinking days (PHDD), mean: 32-week double-blind follow-up (weeks 5-36) after first dose, oral psilocybin 25 mg/70 kg then 25-40 mg/70 kg or diphenhydramine 50 mg then 50-100 mg at weeks 4 and 8, with psychotherapy
# Protocol: Design: In this double-blind trial, participants were offered 12 weeks of manualized psychotherapy and were randomly assigned to receive psilocybin vs. diphenhydramine during two day-long medication sessions at week 4 and 8. Outcomes were assessed over the 32-week double-blind period following the first dose of study medication.
# Interventions: Study medications were psilocybin 25 mg/70 kg vs. diphenhydramine 50 mg (first session) and psilocybin 25-40 mg/70 kg vs. diphenhydramine 50-100 mg (second session). Psychotherapy included motivational enhancement therapy and cognitive-behavioral therapy.
# Qualifying participants were assessed at screening, baseline (week 0), and weeks 4, 5, 8, 9, 12, 24, and 36. They were randomly assigned in a 1:1 ratio to receive either psilocybin or diphenhydramine, administered in two eight-hour sessions at weeks 4 and 8. All participants who completed the double-blind observation period (weeks 5-36) and still met safety criteria were offered an open-label psilocybin session at week 38, including four additional psychotherapy sessions and assessment for an additional 18 weeks. Participants received up to a total of $560 for completing assessments in the course of the trial, but were not reimbursed for attending the therapy and medication sessions.
# All participants were offered a total of 12 psychotherapy sessions from a team of two therapists including a licensed psychiatrist: 4 before the first medication session, 4 between the first and second medication sessions, and 4 in the month following the second medication session. The psychotherapy, described in detail in a separate publication,^41 included motivational interviewing and cognitive behavioral therapy for AUD as well as material designed to help the participants to manage and make use of the psychoactive effects of the study medication.
# Study medication was taken orally in a single opaque capsule of unvarying appearance and weight. Psilocybin doses were weight-based to control for participant body weight, which ranged from 49.0 to 116.1 (mean=78.3, SD=15.6) kg. Doses for the first session were psilocybin 25 mg/70 kg or diphenhydramine 50 mg. Participants received an increased dose in the second session if there were no dose-limiting adverse events and they agreed to the increase. The increased dose of psilocybin was 30 mg/70 kg if the participant's total score on the Pahnke-Richards Mystical Experience Questionnaire (MEQ)^42 was ≥0.6 in the first session (indicating a robust subjective response to the 25 mg/70 kg dose), or 40 mg/70 kg if the MEQ total score in the first session was <0.6. The increased dose of diphenhydramine was 100 mg, regardless of subjective response.
# Study medication was administered at approximately 9 AM, after which participants were required to stay in the session room with the therapists for at least 8 hours (except for bathroom breaks). During the session, participants were encouraged to lie on a couch wearing eyeshades and headphones providing a standardized playlist of music. Medications were available in the session room to treat hypertension, severe anxiety, or psychotic symptoms.
# The pre-specified primary drinking outcome was the percentage of heavy drinking days (PH DD) during […], assessed at weeks 8, 12, 24, and 36 using the timeline followback, a reliable and valid calendar-based method which is the gold standard outcome for AUD clinical trials.^43-47 Secondary outcomes included percent drinking days (PDD), average drinks per day (DPD), and dichotomous outcomes: abstinence, lack of heavy drinking days, and reduction in World Health Organization risk level^48 by one, two, or three levels. Hair or fingernail samples were collected at week 24 and assayed for ethylglucuronide (EtG) concentration to confirm self-reported abstinence. The Short Index of Problems (SIP-2R)^49 was used to assess drinking-related problems at baseline and weeks 12, 24, and 36. […]
# AUD patients [2] = test: Subjective effects of study medication, Mystical Experience Questionnaire (MEQ)
# Protocol: Subjective effects of psilocybin vs. diphenhydramine were assessed using the States of Consciousness Questionnaire,^42 containing the 43-item Mystical Experience Questionnaire (MEQ), completed immediately after each medication session.
# MEQ scores for the first and second medication sessions were computed and contrasted by group (psilocybin vs. diphenhydramine) using t-tests for independent samples.
# AUD patients [3] = test: Safety: blood pressure, heart rate and adverse events in the trial
# Protocol: Blood pressure and heart rate were assessed at 30- to 60-minute intervals during the first 6 hours of each medication session. Adverse events were solicited at each post-screening assessment.
# Blood pressure and heart rate treatment contrasts were based on MMRM with fixed, categorical effects of treatment and assessment, a treatment-by-assessment interaction, and a fixed covariate (value of each outcome prior to drug administration). All adverse events occurring after informed consent were MedDRA-coded and tabulated, and prevalence within treatment groups (proportion of participants affected) was compared using Fisher's exact tests.
# [4] = 32-week double-blind follow-up (weeks 5-36)
# [5] = 32 weeks following the first administration of study medication
# [6] = treatment-emergent, within 48 hours of study drug administration
compound,measurement,setting,value
"CN(C)CCOC(c1ccccc1)c1ccccc1 [Diphenhydramine, diphenhydramine]","% of Drinking days (PDD), mean",AUD patients [1]; [4],42.83%
same,"Drinks per day (DPD), mean",AUD patients [1]; [4],2.26 Drinks per day
same,"% of Heavy drinking days (PHDD), mean",AUD patients [1],23.57%
same,"% of Heavy drinking days (PHDD), mean",AUD patients [1]; listed as diphenhydramine,23.6%
same,"Abstinence, % of participants",AUD patients [1]; Weeks 5-36,(8.9) %
same,"Abstinence, No. of participants",AUD patients [1]; Weeks 5-36,4
same,"No heavy drinking, % of participants",AUD patients [1]; Weeks 5-36,(11.1) %
same,"No heavy drinking, No. of participants",AUD patients [1]; Weeks 5-36,5
same,"WHO risk level Decrease 1, % of participants",AUD patients [1]; Weeks 5-36,(71.1) %
same,"WHO risk level Decrease 2, % of participants",AUD patients [1]; Weeks 5-36,(40.0) %
same,"WHO risk level Decrease 2, No. of participants",AUD patients [1]; Weeks 5-36,18
same,"WHO risk level Decrease 3, % of participants",AUD patients [1]; Weeks 5-36,(13.3) %
same,"WHO risk level Decrease 3, No. of participants",AUD patients [1]; Weeks 5-36,6
same,"WHO risk level Decrease 1, No. of participants","AUD patients [1]; Weeks 5-36, relative to 12 weeks prior to screening",32
same,"Abstinence, % of participants",AUD patients [1]; Weeks 33-36,(24.4) %
same,"Abstinence, No. of participants",AUD patients [1]; Weeks 33-36,11
same,"No heavy drinking, % of participants",AUD patients [1]; Weeks 33-36,(40.0) %
same,"No heavy drinking, No. of participants",AUD patients [1]; Weeks 33-36,18
same,"WHO risk level Decrease 1, % of participants",AUD patients [1]; Weeks 33-36,(64.4) %
same,"WHO risk level Decrease 1, No. of participants",AUD patients [1]; Weeks 33-36,29
same,"WHO risk level Decrease 2, % of participants",AUD patients [1]; Weeks 33-36,(40.0) %
same,"WHO risk level Decrease 2, No. of participants",AUD patients [1]; Weeks 33-36,18
same,"WHO risk level Decrease 3, % of participants",AUD patients [1]; Weeks 33-36,(17.8) %
same,"WHO risk level Decrease 3, No. of participants",AUD patients [1]; Weeks 33-36,8
same,Mean MEQ score,"AUD patients [2]; Session 1, psilocybin 25 mg/70 kg or diphenhydramine 50 mg",0.10 (SD=0.13)
same,Mean MEQ score,"AUD patients [2]; Session 2, psilocybin 25-40 mg/70 kg or diphenhydramine 50-100 mg",0.11 (SD=0.16)
same,"Adverse events reported, number",AUD patients [3]; [5],85
same,Serious adverse events,AUD patients [3]; [5],Three
same,"Headaches, participants affected / treated",AUD patients [3]; [6],2/45
same,"Headaches, percent of participants",AUD patients [3]; [6],4.4%
